In patent US11130741B2 (Bioimics AB, priority 2016, dated 2021) one finds MIC and IC50 data, which are given here for 27 molecules.

For assay [1], the system named is Staphylococcus aureus subsp. aureus (ATCC29213). Kind of assay: MIC, broth microdilution (CLSI), Staphylococcus aureus subsp. aureus ATCC29213. It counts as cell-based. The settings on record: ATCC29213, Table 15, read-out: S. aureus ("wound") (MIC).
For assay [2], the system named is E. coli RNase P RNA, M1 RNA. Kind of assay: Inhibition of bacterial RNase P activity, IC50 determination (cleavage of pATSerUG by M1 RNA). It counts as biochemical. The settings on record: NI = No inhibition.
Assay [3] relates to Escherichia coli (ATCC25922). Kind of assay: MIC, broth microdilution (CLSI), Escherichia coli ATCC25922.
Setting [4] is: ATCC25922, read-out: E. coli MIC, Table 15, NI = No inhibition.
Setting [5] is: ATCC25922, read-out: E. coli MIC.

pIC50: −log10 of the molar value. Values after ≈ are worked out from the molar mass of the structure shown. Like-named read-outs stand apart in the source and are kept apart here.

The term MIC denotes the lowest concentration found to suppress growth. The term pIC50 denotes −log10 of the IC50, conventionally taken in molar units. The low end stands for a high IC50, the high end for a low IC50. On to `CN(C)C1CCN(c2ccc3c(c2)Sc2cc(C(F)(F)F)cc(NC4CCN(CCN)CC4)c2N3)C1.Cl.Cl` (centres unmarked) [compound 299, N-(1-(2-aminoethyl)piperidin-4-yl)-7-(3-(dimethylamino)pyrrolidin-1-yl)-3-(trifluoromethyl)-10H-phenothiazin-1-amine hydrochloride], for which the MIC stood at 8 µg/mL in assay [1] and 32 µg/mL in assay [3] (setting [4]). Further, the negative logarithm of the IC50 (pIC50) in assay [2] was 5.17.
On the same counts, the results for `Cl.Cl.NCCN1CCC(Nc2cc(C(F)(F)F)cc3c2Nc2ccc(C(=O)N4CCCC4)cc2S3)CC1` [compound 293, (9-((1-(2-aminoethyl)piperidin-4-yl)amino)-7-(trifluoromethyl)-10H-phenothiazin-3-yl)(pyrrolidin-1-yl)methanone hydrochloride] are 8 µg/mL, 16 µg/mL and 4.21.
For the molecule `CC1(C)CCN(c2ccc3c(c2)Sc2cc(C(F)(F)F)cc(NC4CCN(CCN)CC4)c2N3)C1.Cl` [compound 332, N-(1-(2-aminoethyl)piperidin-4-yl)-7-(3,3-dimethyl-pyrrolidin-1-yl)-3-(trifluoromethyl)-10H-phenothiazin-1-amine hydrochloride], the MIC was 1 µg/mL in assay [1] and 8 µg/mL in assay [3] (setting [4]). The pIC50 in assay [2] was 5.39.
As to `Cl.NC1CCCC(C(=O)Nc2cc(C(F)(F)F)cc3c2Nc2ccc(N4CCCC4)cc2S3)C1` (centres unmarked) [compound 294, 3-amino-N-(7-(pyrrolidin-1-yl)-3-(trifluoromethyl)-10H-phenothiazin-1-yl)cyclohexane-1-carboxamide hydrochloride], the minimal inhibitory concentration (MIC) in assay [1] was 8 µg/mL; in assay [3] (setting [4]) it was 64 µg/mL. The molecule also had a pIC50 in assay [2] of 5.62.
Turning to `CCOC(=O)c1ccc2c(c1)Sc1cc(-c3cc4ccccc4[nH]3)ccc1N2CCCN` [compound 258, ethyl 10-(3-aminopropyl)-7-(1H-indol-2-yl)-10H-phenothiazine-3-carboxylate], the results for the MIC in assay [1] and in assay [3] (setting [4]) were 2 µg/mL (≈ 4.51 µM) and 128 µg/mL (≈ 289 µM), respectively. Further, the pIC50 in assay [2] was 4.62.
`CN(C)C1CCN(c2ccc3c(c2)Sc2cc(C(F)(F)F)cc(NC4CCN(CCN)CC4)c2N3)CC1.Cl.Cl` [compound 295, N-(1-(2-aminoethyl)piperidin-4-yl)-7-(4-(dimethylamino)piperidin-1-yl)-3-(trifluoromethyl)-10H-phenothiazin-1-amine hydrochloride]: the results for the MIC in assay [1] and in assay [3] (setting [4]) were 32 µg/mL and 128 µg/mL, respectively. The molecule also showed a pIC50 in assay [2] of 4.68.
Take `Cl.Cl.NC1CCCC(C(=O)Nc2cc(C(F)(F)F)cc3c2Nc2ccc(Br)cc2S3)C1` (centres unmarked) [compound 312, 3-amino-N-(7-bromo-3-(trifluoromethyl)-10H-phenothiazin-1-yl)cyclohexane-1-carboxamide hydrochloride]: the MIC in assay [1] was determined as 2 µg/mL; in assay [3] (setting [4]), 16 µg/mL. The pIC50 in assay [2] is 4.92.
For `Cl.Cl.NCCN1CCC(Nc2cc(C(F)(F)F)cc3c2Nc2ccc(N4CCC(F)(F)C4)cc2S3)CC1` [compound 303, N-(1-(2-aminoethyl)piperidin-4-yl)-7-(3,3-difluoro-pyrrolidin-1-yl)-3-(trifluoromethyl)-10H-phenothiazin-1-amine hydrochloride], in that order: 8 µg/mL, 32 µg/mL and 5.01.
For the molecule `Cl.NCCNCCCNc1cc(C(F)(F)F)cc2c1Nc1ccc(N3CC4(CCC4)C3)cc1S2` [compound 347, N1-(7-(2-azaspiro[3.3]heptan-2-yl)-3-(trifluoromethyl)-10H-phenothiazin-1-yl)-N3-(2-aminoethyl) propane-1,3-diamine hydrochloride], the figures for the minimal inhibitory concentration (MIC) in assay [1] and in assay [3] (setting [4]) were 4 µg/mL and 8 µg/mL, respectively.
As to `Cc1cc(NC2CCN(CCN)CC2)c2c(c1)Sc1cc(Br)ccc1N2.Cl` [compound 329, N-(1-(2-aminoethyl)piperidin-4-yl)-7-bromo-3-methyl-10H-phenothiazin-1-amine hydrochloride], the minimal inhibitory concentration (MIC) in assay [1] was determined as 16 µg/mL; in assay [3] (setting [4]), 64 µg/mL.
`Cl.Cl.NCCN1CCC(Nc2cc(C(F)(F)F)cc3c2Nc2ccc(C4CCCC4)cc2S3)CC1` [compound 354, N-(1-(2-aminoethyl)piperidin-4-yl)-7-cyclopentyl-3-(trifluoromethyl)-10H-phenothiazin-1-amine hydrochloride]: the MIC in assay [1] was found to be 1 µg/mL; in assay [3] (setting [4]) it was 8 µg/mL.
In the case of `Cl.FC(F)(F)c1cc(NC2CCN(CCN3CCNCC3)CC2)c2c(c1)Sc1cc(N3CCCC3)ccc1N2` [compound 330, N-(1-(2-(piperazin-1-yl)ethyl)piperidin-4-yl)-7-(pyrrolidin-1-yl)-3-(trifluoromethyl)-10H-phenothiazin-1-amine hydrochloride], the MIC in assay [1] is 128 µg/mL; in assay [3] (setting [5]), greater than 128 µg/mL.
`CCN(C)c1ccc2c(c1)Sc1cc(C(F)(F)F)cc(NCCCNCCN)c1N2.Cl.Cl` [compound 348, N1-(3-((2-aminoethyl)amino)propyl)-N7-ethyl-N7-methyl-3-(trifluoromethyl)-10H-phenothiazine-1,7-diamine hydrochloride]: the figures for the minimum inhibitory concentration (MIC) in assay [1] and in assay [3] (setting [4]) were 4 µg/mL and 32 µg/mL, respectively.
For `Cl.NCCN1CCC(Nc2cc(C(F)(F)F)cc3c2Nc2ccc(N4CCC5CCCC54)cc2S3)CC1` (centres unmarked) [compound 340, N-(1-(2-aminoethyl)piperidin-4-yl)-7-(hexahydro-cyclopenta[b]pyrrol-1(2H)-yl)-3-(trifluoromethyl)-10H-phenothiazin-1-amine hydrochloride], in that order: 4 µg/mL and 16 µg/mL.
As to `Cl.Cl.Cl.NCCNCC(=O)CNc1cc(C(F)(F)F)cc2c1Nc1ccc(N3CCCC3)cc1S2` [compound 317, 1-((2-aminoethyl)amino)-3-((7-(pyrrolidin-1-yl)-3-(trifluoromethyl)-10H-phenothiazin-1-yl)amino) propan-2-one hydrochloride], the results for the minimal inhibitory concentration (MIC) in assay [1] and in assay [3] (setting [4]) were 64 µg/mL and 128 µg/mL, respectively.
On the same counts, the results for `NC1CCCC(C(=O)Nc2cc(C(F)(F)F)cc3c2Nc2ccncc2S3)C1` (centres unmarked) [compound 257, 3-amino-N-(8-(trifluoromethyl)-5H-benzo[e]pyrido[3,4-b][1,4]thiazin-6-yl)cyclohexanecarboxamide] are 64 µg/mL (≈ 157 µM) and 128 µg/mL (≈ 313 µM).
Turning to `CC1CCCN1c1ccc2c(c1)Sc1cc(C(F)(F)F)cc(NC3CCN(CCN)CC3)c1N2.Cl.Cl` (centres unmarked) [compound 316, N-(1-(2-aminoethyl)piperidin-4-yl)-7-(2-methyl-pyrrolidin-1-yl)-3-(trifluoromethyl)-10H-phenothiazin-1-amine hydrochloride], the MIC in assay [1] came out at 2 µg/mL; in assay [3] (setting [4]) it was 8 µg/mL.
With `NCCCN1c2ccc(C(=O)O)cc2Sc2cc(-c3cc4ccccc4[nH]3)ccc21` [compound 262, 10-(3-aminopropyl)-7-(1H-indol-2-yl)-10H-phenothiazine-3-carboxylic acid trifluoro acetic acid], the MIC was 32 µg/mL (≈ 77 µM) in assay [1] and greater than 128 µg/mL in assay [3] (setting [5]).
Consider `Cl.Cl.NCCN1CCC(Nc2cc(C(F)(F)F)cc3c2Nc2ccc(N4CCCCC4)cc2S3)CC1` [compound 289, N-(1-(2-aminoethyl)piperidin-4-yl)-7-(piperidin-1-yl)-3-(trifluoromethyl)-10H-phenothiazin-1-amine hydrochloride], for which the minimal inhibitory concentration (MIC) in assay [1] turned out to be 4 µg/mL; in assay [3] (setting [4]) it was 8 µg/mL.
For `CC1CC(C)N(c2ccc3c(c2)Sc2cc(C(F)(F)F)cc(NCCCNCCN)c2N3)C1.Cl` (centres unmarked) [compound 349, N1-(2-aminoethyl)-N3-(7-(2,4-dimethyl-pyrrolidin-1-yl)-3-(trifluoromethyl)-10H-phenothiazin-1-yl)propane-1,3-diamine hydrochloride], the minimal inhibitory concentration (MIC) in assay [1] was determined as 4 µg/mL; in assay [3] (setting [4]) it was 16 µg/mL.
As to `FC(F)(F)c1cc(NC2CCNCC2)c2c(c1)SC1CCCCC1N2` (centres unmarked) [compound 259, N-(piperidin-4-yl)-7-(trifluoromethyl)-2,3,4,4a,10,10a-hexahydro-1H-phenothiazin-9-amine], the minimum inhibitory concentration (MIC) in assay [1] came to 16 µg/mL (≈ 43.1 µM); in assay [3] (setting [4]), 64 µg/mL (≈ 172 µM).
As to `Cl.Cl.Cl.NCCC1CCN(c2ccc3c(c2)Sc2cc(C(F)(F)F)cc(NC4CCN(CCN)CC4)c2N3)CC1` [compound 273, 7-(4-(2-aminoethyl)piperidin-1-yl)-N-(1-(2-aminoethyl)piperidin-4-yl)-3-(trifluoromethyl)-10H-phenothiazin-1-amine hydrochloride], the MIC was 8 µg/mL in assay [1] and 32 µg/mL in assay [3] (setting [4]).
As to `Cl.NCCN1CCC(Nc2cc(C(F)(F)F)cc3c2Nc2ccc(C4=CCCC4)cc2S3)CC1` [compound 359, N-(1-(2-aminoethyl)piperidin-4-yl)-7-(cyclopent-1-en-1-yl)-3-(trifluoromethyl)-10H-phenothiazin-1-amine hydrochloride], the MIC in assay [1] is 16 µg/mL; in assay [3] (setting [4]), 64 µg/mL.
With `CC(C)C1CCCN(c2ccc3c(c2)Sc2cc(C(F)(F)F)cc(NC4CCN(CCN)CC4)c2N3)C1.Cl.Cl.Cl` (centres unmarked) [compound 320, N-(1-(2-aminoethyl)piperidin-4-yl)-7-(3-isopropyl-piperidin-1-yl)-3-(trifluoromethyl)-10H-phenothiazin-1-amine hydrochloride], the MIC in assay [1] is 4 µg/mL; in assay [3] (setting [4]) it was 32 µg/mL.
With `Cl.NC1CCCC(CNc2cc(C(F)(F)F)cc3c2Nc2ccc(Br)cc2S3)C1` (centres unmarked) [compound 343, N-((3-aminocyclohexyl)methyl)-7-bromo-3-(trifluoromethyl)-10H-phenothiazin-1-amine hydrochloride], the MIC in assay [1] was 16 µg/mL; in assay [3] (setting [4]), 64 µg/mL.
For `NC1CCCC(C(=O)Nc2cc(C(F)(F)F)cc3c2Nc2ncccc2S3)C1` (centres unmarked) [compound 263, 3-amino-N-(7-(trifluoromethyl)-10H-benzo[b]pyrido[2,3-e] [1,4]thiazin-9-yl)cyclohexane-1-carboxamide], in that order: 64 µg/mL (≈ 157 µM) and 64 µg/mL (≈ 157 µM).
`CC(=O)Nc1cc(C(F)(F)F)cc2c1Nc1ccc(N3CCCC3)cc1S2.Cl` [compound 328, N-(7-(pyrrolidin-1-yl)-3-(trifluoromethyl)-10H-phenothiazin-1-yl)acetamide hydrochloride]: the minimum inhibitory concentration (MIC) is 16 µg/mL in assay [1] and greater than 128 µg/mL in assay [3] (setting [4]).
